# Measurements from US20260306460A1, “COMPOSITION FOR REMOVING AND INHIBITING SENESCENT CELLS, AND USES THEREOF” (LIFECEUTIX CO., LTD., priority 2023, published 2026).
# “And” between values parts separate entries of the source, which are not always exact repeats. Equal values may be shown once. Read-outs that look alike come from different tables or passages of the source.
# Legend:
# [1] = system: HMGN1 secreted from senescent A549 cells; assay: HMGN1 secretion (ELISA) from senescent A549 cancer cells, Example 12; format: cell-based, human; details: senescent untreated = 100%; 30 μM; 90 μM for LX-305, 905, 1302, 1601, 1603, 2003, 2702, 2901, 3106; 270 μM for LX-1103, 2005, 2007;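 also: A549 cells made senescent by doxorubicin exposure, with DMSO-treated cells serving as the non-senescent control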
# Protocol: Cells were treated with doxorubicin or control (DMSO) and cultured.
# [2] = system: senescent foreskin cells; assay: Survival of senescent human cells treated with supernatant (secreted fluid) from death-induced cells, Example 13; format: cell-based; details: senescent treated cells; for viability at 30 µM: Homo sapiens, 72 h
# [3] = system: naturally aged C57BL6J mice; assay: Cataract incidence in naturally aged mice, Example 21-15, Table 30; format: in vivo, mouse; details: orally twice a week, 360 mg/kg, until death, untreated aged 83
# Protocol: (§1) 22-month-old female C57BL6J mice (KRIBB Laboratory Animal Resource Center) were acclimated to the experimental environment for one week, after which the aged mice were randomly assigned to experimental and control groups. Eight-week-old, non-aged mice served as controls. LX-403 was mixed in a 10% ethanol solution of PEG400 and administered orally at a concentration of 25 mg/kg daily for 21 days, or administered to the skin, joints, or eyes at a concentration of 1 μM. LX-1801 was mixed in distilled water with 4% DMSO, 30% PEG300, and 5% Tween80 and administered to the skin, joints, or eyes at a concentration of 0.4 μM daily for 21 days. LX-2001 was mixed in PBS and administered to the skin, joints, or eyes at a concentration of […] daily for 21 days. LX-2002 was mixed in distilled water with 4% DMSO, 30% PEG300, and 5% Tween80 and administered to the skin, joints, or eyes at a concentration of 2 μM daily for 21 days. […] LX-2005 was mixed in distilled water with 4% DMSO, 30% PEG300, and 5% Tween80 and administered to the skin, joints, or eyes at a concentration of 90 μM daily for 21 days. LX-2007 was mixed in distilled water with 4% DMSO, 30% PEG300, and 5% Tween80 and administered to the skin, joints, or eyes at a concentration of 90 μM daily for 21 days. […] LX-3002 was mixed in distilled water with 4% DMSO, 30% PEG300, and 5% Tween80 and administered orally at a concentration of 10 mg/kg daily for 21 days. […] LX-5411 was mixed in 5% PBS and administered orally at a concentration of 10 mg/kg daily for 21 days or administered to the skin, joints, or eyes at a concentration of 3 μM. LX-5701 was mixed in PBS and administered orally at a concentration of 360 mg/kg daily for 21 days. LX-6807 was mixed in saline and administered intraperitoneally at a concentration of 1 mg/kg daily for 21 days. LX-2101 or LX-2102 was mixed in PBS solution with 5% DMSO and administered intraperitoneally at a concentration of 20 mg/kg or 10 mg/kg, respectively, daily for 21 days. The control group received only the solution in the same volume. After the end of drug administration, the methods described in each example below were performed.
# Cataracts, which occur with age, are a disease that causes visual impairment due to clouding of the lens and are a major cause of blindness. The mice of Example 21-1 were treated with the test compound mixed in PBS orally twice a week at a concentration of 360 mg/kg. Cataract development was assessed biweekly until death.
# [4] = system: naturally aged C57BL6J mice; assay: Skin aging (dermal thickness, COL1A1 and SDF1 mRNA, hair loss) in naturally aged mice, Example 21-10, Table 25; format: in vivo, mouse; details: for Dermal Thickness (μm): mouse, in vivo
# Protocol: as §1
# Frozen sections of skin tissue were stained with Hematoxylin/Eosin (H/E), and the dermal thickness was observed under an optical microscope. Furthermore, the mRNA levels of collagen (COL1A1), a skin component, and SDF1, which suppresses age-related pigmentation, were measured using qRT-PCR as described in Example 7-2 of WO2023-085787 A1. […] Furthermore, biweekly examinations were performed to assess the onset of hair loss due to aging.
# [5] = system: naturally aged C57BL6J mice; format: in vivo, mouse
# [6] = system: NaIO3-induced retinal degenerative C57BL6J mice; assay: NaIO3 retinal degeneration in mice (p16 mRNA, outer nuclear layer thickness), Example 29, Table 53; format: in vivo, mouse; details: daily for 21 days; for Outer nuclear layer thickness: untreated 27.4 (±1.3); for p16 mRNA: untreated 100%
# Protocol: Then, retinal degenerative diseases were induced for more than 7 days by intravenous administration of 20 mg/kg of NaIO3, an oxidizing agent that induces retinal pigment epithelial cell death and retinal degeneration. Mice with retinal degenerative diseases were randomly assigned to experimental and control groups. […] The control group received only the solution in the same volume. […] In addition, frozen sections of the other eye tissue were stained with H/E (Hematoxylin/Eosin), and the thickness of the outer nuclear layer (ORL) was observed under an optical microscope. […] The mRNA amount after aging induction was calculated as 100% and compared with the mRNA amount of p16 after treatment with the test compound.
# [7] = system: bleomycin-induced scleroderma C57BL6J mice; assay: Bleomycin scleroderma in mice (p16, COL1A1 mRNA, dermal thickness), Example 24-2, Table 48; format: in vivo, mouse; details: daily for 21 days; for p16 mRNA: untreated 100 (±8.8); for Col1a1 mRNA: untreated 100 (±13.2); for Dermal Thickness: untreated 459 (±38.7)
# Protocol: Eight-week-old male C57BL6J mice (KRIBB Laboratory Animal Resource Center) were acclimated to the experimental environment for one week. Then, 100 μl of the anticancer drug bleomyxin (1 mg/ml) was administered subcutaneously every other day to induce scleroderma for more than three weeks. Mice with scleroderma were randomly assigned to experimental and control groups. LX-403 was mixed with a 10% ethanol solution of PEG400 and administered orally at a concentration of 25 mg/kg daily for 21 days or administered directly to the skin at a concentration of 1 μM. LX-1801 was mixed with a solution of 4% DMSO, 30% PEG300, and 5% Tween80 in distilled water and administered subcutaneously at a concentration of 0.4 μM daily for 21 days. LX-2001 was mixed in PBS and administered intradermally at a concentration of 2 μM daily for 21 days. LX-2002 was mixed in distilled water with 4% DMSO, 30% PEG300, and 5% Tween80 and administered intradermally at a concentration of 2 μM daily for 21 days. […] LX-2005 was mixed in distilled water with 4% DMSO, 30% PEG300, and 5% Tween80 and administered intradermally at a concentration of 90 μM daily for 21 days. LX-2007 was mixed in distilled water with 4% DMSO, 30% PEG300, and 5% Tween80 and administered intradermally at a concentration of 90 μM daily for 21 days. […] LX-3002 was mixed with distilled water with 4% DMSO, 30% PEG300, 5% tween80 and administered orally at 10 mg/kg daily for 21 days. […] LX-5411 was mixed with 5% PBS and administered orally at 10 mg/kg daily for 21 days or subcutaneously at 3 μM. LX-5701 was mixed with PBS and administered orally at 360 mg/kg daily for 21 days. LX-6807 was mixed in saline and administered intraperitoneally at a concentration of 1 mg/kg daily for 21 days. The control group was administered only the solution in the same volume. After the end of drug administration, mice were sacrificed in the same manner as in Example 7-2 of WO2023-085787 A1, RNA was extracted from skin tissue, and the synthesized cDNA was used to perform and analyze the mRNA amounts of p16 and collagen (COL1A1) by qRT-PCR (quantitative real-time PCR). In addition, to measure the degree of bleomycin-induced skin hardening, skin frozen sections were stained with H/E (Hematoxylin/Eosin), and the thickness of the dermis was observed under an optical microscope.
# [8] = Table 8, supernatant from dying senescent cells treated at 30, 90 or 270 μM (as Example 11)
# [9] = naturally aged mice, untreated aged = 100
# [10] = skin, naturally aged mice, untreated aged = 1
# [11] = after 7 days, 6 mm punch dorsal skin wounds, naturally aged mice, untreated aged 3.2 (±0.4)
Structure (SMILES),HMGN1 [1] [%],"Survival [2, 8]",Cataract incidence (%) [3] [%],Dermal Thickness (μm) [4],"Relative area of hair loss (%) [4, 9]","Col1a1 mRNA (Fold) [4, 10]","SDF1 mRNA (fold) [4, 10]","Wound size (mm) [5, 11]",Outer nuclear layer thickness [6],p16 mRNA [6],p16 mRNA [7],Col1a1 mRNA [7],Dermal Thickness [7],other results
COC(=O)c1ccc([C@H]2c3[nH]c4ccccc4c3C[C@H](C(=O)OC)N2C(=O)CCl)cc1 [LX-405],310,–,–,–,–,–,–,–,–,–,–,–,–,"viability at 30 µM ([2]; supernatant from death-induced proliferating cells, 3 days): 41.3%; viability at 30 µM ([2]; supernatant from death-induced senescent cells, 3 days): 52.7%; Survival ([2]; supernatant from No Cells, 3 days): 102.8 (±4.6) %"
S=C(N/N=C1\CCCc2cccnc21)N1CCN(c2ccccn2)CC1 [LX-801],329,52.7,–,–,–,–,–,–,–,–,–,–,–,–
"CC1(C)CC[C@]2(NC(=O)C(C)(F)F)CC[C@]3(C)[C@H](C(=O)C=C4[C@@]5(C)C=C(C#N)C(=O)C(C)(C)[C@@H]5CC[C@]43C)[C@@H]2C1 [LX-2101, Omaveloxolone]",297,39.7,77,224 (±11.1) μm and 251 (±15.1) μm,82 (±8.9) %,2.5 (±0.2) Fold,1.4 (±0.3) fold,1.9 (±0.3) mm,29.4 (±7.5) μm and 39 (±4.1) μm,80 (±2.7) % and 67 (±7.0) %,–,–,–,Col1a1 mRNA (Fold) ([4]; topical): 2.2 (±0.2) Fold; Relative area of hair loss (%) ([4]; topical): 79 (±4.1) %; SDF1 mRNA (fold) ([4]; topical): 1.9 (±0.3) fold
"COC(=O)[C@]12CCC(C)(C)C[C@H]1[C@H]1C(=O)C=C3[C@@]4(C)C=C(C#N)C(=O)C(C)(C)[C@@H]4CC[C@@]3(C)[C@]1(C)CC2 [LX-2102, Bardoxolone methyl]",233,46.3,–,234 (±9.6) μm,–,–,–,–,–,–,–,–,–,"Col1a1 mRNA (Fold) ([4]; topical): 2.0 (±0.2) Fold; Relative area of hair loss (%) ([4]; topical): 89 (±7.5) %; SDF1 mRNA (fold) ([4]; topical): 1.3 (±0.1) fold; wound/damage healing improvement ([5]; mouse, in vivo): damage treatment and recovery"
"CCCC\C=C/C=C/C=C\CCCCCCCC(=O)O [LX-2707, Punicic acid]",–,–,48,237 (±19.4) μm,–,–,–,2.7 (±0.3) mm,31.8 (±1.7) μm,76 (±5.4) %,67.5 (±4.7) %,64.1 (±2.0) %,389 (±23.6) μm,–
"COC(=O)[C@H]1Cc2c([nH]c3ccccc23)[C@H](c2ccc(S(C)(=O)=O)cc2)N1C(=O)CCl [LX-5401, methyl (1S,3R)-2-(2-chloroacetyl)-1-(4-(methylsulfonyl)phenyl)-2,3,4,9-tetrahydro-1H-pyrido[3,4-b]indole-3-carboxylate]",–,–,69,222 (±26.3) μm,–,–,–,2.3 (±0.3) mm,–,–,61.2 (±6.7) %,74.6 (±2.4) %,401 (±46.3) μm,–
C#CC(=O)N1[C@@H](CCCC)Cc2cc(OC)ccc2[C@@H]1c1ccc(NC23CC4CC(CC(C4)C2)C3)cc1 [LX-5411],–,–,61,231 (±27.1) μm,64 (±4.8) %,2.7 (±0.1) Fold,2.3 (±0.2) fold,1.6 (±0.1) mm,43.7 (±4.2) μm,43 (±2.5) %,43.8 (±3.0) %,55.3 (±1.6) %,376 (±47.1) μm,–
O=C1C2CCN(CC2)C1CNC(=O)C(F)(F)F (stereo not shown) [LX-5701],–,–,64,239 (±16.4) μm,71 (±8.4) %,1.9 (±0.1) Fold,1.7 (±0.3) fold,–,52.7 (±3.2) μm,67 (±7.3) %,64 (±9.4) %,59.7 (±17.3) %,358 (±21.4) μm,"Wound size (mm) ([5]; mouse, in vivo): 1.9 (±0.2) mm"
"Cc1cccc([C@H](C)c2cnc[nH]2)c1C [LX-6807, Dexmedetomidine]",–,–,61,267 (±22.4) μm,72 (±3.8) %,3.2 (±0.2) Fold,2.1 (±0.2) fold,1.7 (±0.1) mm,50.8 (±3.2) μm,64 (±4.4) %,64.7 (±3.5) %,37.6 (±2.5) %,315 (±29.8) μm,–
